Data on one substance can be found in patent publication EP3294317B1, “ENHANCED ANTIBIOTIC COMPOSITION” (Universitat Autònoma de Barcelona, priority 2015, dated 2016).

The test system of one assay is S. maltophilia K279a. The assay can be described thus: Colistin broth microdilution MIC with compound of formula I prepared in methanol or DMSO (Example 6). It counts as cell-based, Stenotrophomonas maltophilia. Conditions: microdilution test with MHB, colistin without potentiator. The method, then:
(§1) The potentiator effect of the compound of the invention in a new formulation was tested by using colistin sulphate as antibiotic in combination with the enhancer compound of formula I in front of resistant clinical isolates. […]
(§2) Tests were performed to determine the potentiator effect of the compound of the invention with two colistin resistant S. maltophilia strains as shown in Table 9. S. maltophilia K279a is a reference clinical strain. The origin of clinical strain OC323 together with K279a has been described previously (Huedo et al., Two Different rpf Clusters Distributed among a Population of Stenotrophomonas maltophilia Clinical Strains Display Differential Diffusible Signal Factor Production and Virulence Regulation, J. Bacteriol., 2014, 196, 2431-2442).
(§3) Selected compound of formula I was first dissolved in 100% of Methanol (HPLC Gradient Grade CHROMASOLV. Sigma, 34885-1L-R) to 10 mM. The compound was fairly soluble in methanol up to 10 mM and required vigorous vortex.
(§4) […] MICs were determined as described in the Example 1.
(§5) Strains colistin minimal inhibitory concentration (MIC), expressed in µg/mL, and the fold increase in bacterial susceptibility to colistin when combined with the potentiator compound previously dissolved in methanol ([…]) are shown in Table 9: TABLE 9
A general note: In broth dilution the organism is exposed to a series of concentrations in liquid medium.

The test system of the next assay is S. maltophilia OC323. The description is as above. It counts as cell-based, Stenotrophomonas maltophilia. Conditions: microdilution test with MHB, colistin without potentiator. The method, then: as §1, §2, §3, §4, §5
Assay [1] deals with Escherichia coli ATCC 9637. The experiment in a line: Colistin broth microdilution MIC with potentiator compounds (Example 1). The assay is classed as cell-based. Conditions: E. coli ATCC 9637; colistin without potentiator.
Assay [2] has as its system Pseudomonas aeruginosa ATCC 27853. The description is as above. The assay is classed as cell-based. Conditions: P. aeruginosa ATCC 27853; colistin without potentiator.
The test system of assay [3] is Stenotrophomonas maltophilia ATCC 13637. Described as above. Conditions: S. maltophilia ATCC 13637; colistin without potentiator. The assay is classed as cell-based.
For assay [4], the system named is Enterobacter aerogenes ATCC 13048. The assay is described as above. The assay is classed as cell-based. Conditions: E. aerogenes ATCC 13048; colistin without potentiator.
Another assay has as its system S. maltophilia 53149. The experiment in a line: Colistin broth microdilution MIC with potentiator compounds, resistant clinical isolates (Example 3). It counts as cell-based, Stenotrophomonas maltophilia. Conditions: colistin without potentiator. The method, then:
(§6) The potentiator effect of the compound of the invention and other compounds disclosed herein was tested using colistin sulfate as antibiotic and in combination with the enhancer compounds in front of resistant clinical isolates.
(§7) Tests were performed to determine the potentiator effect of the compound of the invention and other compounds disclosed herein with multidrug-resistant S. maltophilia and A. baumannii clinical strains as shown in Table 5: TABLE 5
(§8) For this experiment the potentiator compound was added to a colistin broth microdilution assay at a final concentration of 0.1mM. MICs were determined as described in the Example 1.
(§9) Colistin minimal inhibitory concentration (MIC), expressed in µg/mL, and the fold increase in bacterial susceptibility to colistin when combined with the potentiator compound (expressed as MIC in the presence of 1.0% DMSO / MIC in the presence of 0.1 mM of each potentiator compound and 1.0% DMSO) are shown in Table 6: […]

Another assay concerns S. maltophilia 257. Described as above. The assay is classed as cell-based, Stenotrophomonas maltophilia. Conditions: colistin without potentiator. On the procedure: as §6, §7, §8, §9
The test system of a further assay is S. maltophilia D457. The assay is described as above. The assay is classed as cell-based, Stenotrophomonas maltophilia. Conditions: colistin without potentiator. The method, then:
as §6, §7, §8, §9

In the next assay the test system is S. maltophilia M30. Described as above. The assay is classed as cell-based, Stenotrophomonas maltophilia. Conditions: colistin without potentiator. The method, then: as §6, §7, §8, §9
A further assay deals with S. maltophilia 197. Described as above. It counts as cell-based, Stenotrophomonas maltophilia. To be noted: colistin without potentiator. The method, then:
as §6, §7, §8, §9

Assay [5] deals with Pseudomonas aeruginosa PAO1. The experiment in a line: Colistin broth microdilution MIC with potentiator compounds (Example 1). The assay is classed as cell-based. To be noted: P. aeruginosa PAO1; colistin without potentiator.
The test system of assay [6] is Escherichia coli ATCC 25922. The description is as above. The assay is classed as cell-based. To be noted: E. coli ATCC 25922; colistin without potentiator.
For the next assay, the system named is A. baumannii 6963. The experiment in a line: Colistin broth microdilution MIC with potentiator compounds, resistant clinical isolates (Example 3). The assay is classed as cell-based, Acinetobacter baumannii. Conditions: colistin without potentiator. On the procedure: as §6, §7, §8, §9
A further assay concerns A. baumannii 6799. The assay is described as above. It counts as cell-based, Acinetobacter baumannii. To be noted: colistin without potentiator. The method, then: as §6, §7, §8, §9
The test system of assay [7] is Salmonella enterica subsp. enterica ATCC 14028. The assay can be described thus: Colistin broth microdilution MIC with potentiator compounds (Example 1). The assay is classed as cell-based. Conditions: S. enterica ATCC 14028; colistin without potentiator.
Assay [8] deals with Acinetobacter baumannii ATCC 15308. The assay is described as above. The assay is classed as cell-based. Conditions: A. baumannii ATCC 15308; colistin without potentiator.

For the substance colistin [reference compound], the MIC to colistin entry is reported as “S. maltophilia K279a (16 µg/mL)” in the assay with S. maltophilia K279a and “S. maltophilia OC323 (32 µg/mL)” with S. maltophilia OC323. Further, the “Colistin MIC” value stood at 0.5 mg/L in assay [1]; 0.5 mg/L in assay [2]; 8 mg/L in assay [3]; 1 mg/L in assay [4]; 32 mg/L in the assay on S. maltophilia 53149; 64 mg/L in the assay with S. maltophilia 257. The “Colistin MIC” value was 32 mg/L with S. maltophilia D457; 32 mg/L in the assay with S. maltophilia M30; 32 mg/L in the assay on S. maltophilia 197; 1 mg/L in assay [5]; 1 mg/L in assay [6]; 0.125 mg/L in the assay with A. baumannii 6963. Also, the “Colistin MIC” value amounted to 0.125 mg/L with A. baumannii 6799, 2 mg/L in assay [7] and 0.5 mg/L in [8].
